# Source: PMC3112094, “Pro-apoptotic activity of α-bisabolol in preclinical models of primary human acute leukemia cells” (Journal of Translational Medicine, 2011)
# How the values were obtained:
# Type in all cases: cell-based, human
# AML cells = assay: 24-hour LDH release cytotoxicity assay, ex vivo blasts; conditions: for cytotoxicity: 24 hours, mean ± SD
# Description: (§1) Viable leukemic cells were purified by conventional methods from freshly heparinized peripheral blood with a circulating blast count ≥30,000/mL, or from full-substituted bone marrow that was frozen in liquid nitrogen at diagnosis. In all cases frozen cell samples contained >95% blasts. Cell viability after thawing was always >90%, as assessed by trypan blue staining.
# (§2) Cells derived from patients or normal donors were exposed for 24 hours to 20, 40, 80, and 160 μM α-bisabolol dissolved in ethanol (1:8 in order to minimize drug volumes), and when appropriate to 3 μM imatinib mesylate (Novartis, Basel, CH), representative of the in vivo active concentration. All cytotoxicity tests were performed in triplicate.
# (§3) A lactate dehydrogenase (LDH) release assay was conducted as follows. Thawed cells were resuspended in RPMI-1640 (Lonza, Basel, CH) supplemented with 10% heat-inactivated fetal bovine serum (FBS, Lonza), 50 U/mL penicillin and 50 μg/mL streptomycin (complete medium, CM), seeded at a density of 2 × 10^6 cell/mL and incubated at 37°C in 5% CO2. After 24 hours, the cells were treated with α-bisabolol (or ethanol as a vehicle control) as specified above. Cytotoxicity was determined using the Cytotoxicity Detection Kit^PLUS according to the manufacturer's recommendations (Roche, Mannheim, DE). LDH leakage was measured as the ratio of treatment-induced LDH to spontaneous LDH release. α-bisabolol and imatinib mesylate data were reported as the percent cytotoxicity for treated compared to untreated cells and plotted as dose-response curves over 24 hours. The half maximal inhibitory concentration (IC50) was determined when appropriate.
# (§4) Student's t-test for means, chi-squared tests, Mann-Whitney U test and Kruskall-Wallis analysis of variance by ranks were considered significant for p values < 0.05.
# primary Ph^-B-ALL cells = assay: as above; conditions: for cytotoxicity: 24 hours
# Description: as §1, §2, §3, §4
# [1] = tested on: permeabilized leukemic cells; assay: Oxygen consumption of permeabilized cells (oxygraph, Clark electrode)
# Description: Leukemic cells and normal lymphocytes were centrifuged (10 minutes, 200 × g) and washed with ice cold buffer A (250 mM sucrose, 20 mM HEPES, 10 mM MgCl2 - pH 7.1). The pellet was resuspended in 2 mL of buffer A containing 80 μg of digitonin. After a 1-minute incubation on ice, 8 mL of buffer A were added and cells were centrifuged (3 minutes, 400 × g). The pellet was resuspended in 100 μL buffer A containing 1 mM ADP, 2 mM […] (respiration buffer) and immediately used for the polarographic assay. Cell number and permeabilization was measured by the trypan blue exclusion method. Permeabilized leukemic cells and lymphocytes were assayed for oxygen consumption at 30°C using a thermostatically controlled oxygraph and Clark electrode. Cells were incubated for 10 minutes in respiration buffer at 30°C in the presence or absence of 3 μM α-bisabolol. Mitochondrial respiration (state 3 respiration) was started by adding 5 mM glutamate plus malate (G/M) and 5 mM succinate plus glycerol-3-phosphate (S/[…]), which are complex I and […]/glycerol-3-phosphate dehydrogenase substrates, respectively. The maximal respiration rate (uncoupled respiration) was empirically determined by the addition of 200 nM carbonylcyanide-4- (trifluoromethoxy)-phenylhydrazone (FCCP).
# BID = assay: Western blot for BID cleavage and mitochondrial translocation
# Description: Cells were homogenized at 4°C in 50 mM Tris-HCl (pH 8) containing 0.1% Nonidet-P40 (NP-40), 200 mM KCl, 2 mM MgCl2, 50 μM ZnCl2, 2 mM DTT, and protease inhibitors [1 mM phenylmethylsulfonyl fluoride (PMSF), 1 mg/mL leupeptin, and 1 mg/mL antipain]. Aliquots of the homogenates (40 μg total protein/lane) were loaded on SDS-polyacrylamide gels at the appropriate concentrations. Electrophoresis was performed at 100 V with a running buffer containing 0.25 M Tris-HCl (pH 8.3), 1.92 M glycine, and 1% SDS. The resolved proteins were electroblotted onto a nitrocellulose membrane using the iBlot™ system (Invitrogen, Carlsbad, CA). Membranes were then incubated with a mouse monoclonal IgG antibody to poly(ADP-ribose) polymerase (PARP) (Zymed, South San Francisco, CA), with a rabbit polyclonal IgG antibody to BID (Cell Signaling Technology, Danvers, MA) or with a rabbit polyclonal IgG antibody to α-tubulin (Cell Signaling Technology). The membranes were then washed and incubated with an anti-mouse or anti-rabbit IgG peroxidase-conjugated antibody (Cell Signaling Technology). The blots were washed again and then incubated with enhanced chemiluminescent detection reagents (Immun-Star™ WesternC™ Kit, Bio-Rad, Hercules, CA) according to the manufacturer's instructions. Proteins were detected using the ChemiDoc XRS Imaging System (Bio-Rad). […]
smiles,measurement,setting,value
CC(C)=CCC[C@](C)(O)[C@@H]1CC=C(C)CC1 [α-bisabolol],IC50,"AML cells; Homo sapiens, n 14, 24-hour",54 ± 8 µM
same,cytotoxicity,"AML cells; n 14, 20 μM α-bisabolol",10 ± 9%
same,cytotoxicity,"AML cells; n 14, 40 μM α-bisabolol",32 ± 21%
same,cytotoxicity,"AML cells; n 14, 80 μM α-bisabolol",72 ± 11%
same,cytotoxicity,"AML cells; n 14, 160 μM α-bisabolol",96 ± 4%
same,IC50,"primary Ph^-B-ALL cells; Homo sapiens, n 14, 24-hour",33 ± 15 µM
same,cytotoxicity,"primary Ph^-B-ALL cells; n 14, 20 μM α-bisabolol, mean ± SD",37 ± 36%
same,cytotoxicity,"primary Ph^-B-ALL cells; n 14, 40 μM α-bisabolol, mean ± SD",55 ± 37%
same,cytotoxicity,"primary Ph^-B-ALL cells; n 14, 80 μM α-bisabolol, mean ± SD",87 ± 12%
same,cytotoxicity,"primary Ph^-B-ALL cells; n 14, 160 μM α-bisabolol",100%
same,oxygen consumption sustained by S/G3P oxidation,"[1]; 3 μM α-bisabolol, 10 minutes, 30°C",not affected
same,NADH-supported state 3 respiration (G/M) oxygen consumption,"[1]; 3 μM α-bisabolol, 10 minutes, 30°C, 6 leukemias, untreated controls 280.7 ± 11.9",140.0 ± 70.5 pmol O2/minute/10^6 cells
same,stimulation of mitochondrial respiration by FCCP (uncoupled respiration),"[1]; 3 μM α-bisabolol-treated leukemic cells, 200 nM FCCP",not stimulated
same,cleavage of BID to truncated BID,"BID; 24-hour α-bisabolol, any concentration, PBMCs and blasts",did not induced the cleavage of BID
same,BID translocation to mitochondrial fraction,BID; different times and solubilized doses of α-bisabolol,No BID translocation was detected
